Reference: the supplement of paper PMC11061612

Assays:
Experiment in all cases: combination Emax (second highest fraction inhibited in the dose matrix, 72 h); higher = more inhibition; extreme values may be limits of the assay
[1] = system: A4-Fuk (B-Lymphoblastic Leukemia)
Outline: (§1)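 Cell lines in DMEM/F12 or RPMI with 10% FBS were plated in 1536-well plates, held 24 hours at 37°C, 5% CO2, then given two-drug dose matrices for 72 hours (DMSO typically 0.2%). Viability was read by CellTiter-Glo 2.0 luminescence and scaled as inhibition from 0 (vehicle wells) to 1 (blank wells). Combination Emax is the second-highest inhibition in the matrix; Bliss excess is observed combination effect minus expected EA + EB − EA·EB, EA and EB being single-agent effects.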

[2] = system: ALL-SIL (T-Lymphoblastic Leukemia)
Outline: as §1

[3] = system: CADO-ES1 (Ewing's Sarcoma)
Outline: as §1

COLO-679 (Melanoma) = system: COLO-679 (Melanoma)
Outline: as §1

EW-1 (Ewing's Sarcoma) = system: EW-1 (Ewing's Sarcoma)
Outline: as §1

[4] = system: HAL-01 (B-Lymphoblastic Leukemia)
Outline: as §1

[5] = system: HCC2998 (Colorectal Carcinoma)
Outline: as §1

Hey (Ovarian Carcinoma) = system: Hey (Ovarian Carcinoma)
Outline: as §1

[6] = system: KGN (Other Solid Carcinomas)
Outline: as §1

[7] = system: KMRC-1 (Kidney Carcinoma)
Outline: as §1

[8] = system: KOPN-8 (B-Lymphoblastic Leukemia)
Outline: as §1

[9] = system: MDA-MB-453 (Breast Carcinoma)
Outline: as §1

[10] = system: ME-180 (Cervical Carcinoma)
Outline: as §1

[11] = system: ML-2 (Acute Myeloid Leukemia)
Outline: as §1

[12] = system: MOLT-4 (T-Lymphoblastic Leukemia)
Outline: as §1

[13] = system: MV-4-11 (Acute Myeloid Leukemia)
Outline: as §1

[14] = system: Mo-T (Other Blood Carcinomas)
Outline: as §1

[15] = system: NCI-H1993 (Lung Adenocarcinoma)
Outline: as §1

[16] = system: NCI-H650 (Lung Adenocarcinoma)
Outline: as §1

[17] = system: OACM5-1 (Esophageal Adenocarcinoma)
Outline: as §1

Row | Compound | combination Emax [1] | combination Emax [2] | combination Emax [3] | combination Emax (COLO-679 (Melanoma)) | combination Emax (EW-1 (Ewing's Sarcoma)) | combination Emax [4] | combination Emax [5] | combination Emax (Hey (Ovarian Carcinoma)) | combination Emax [6] | combination Emax [7] | combination Emax [8] | combination Emax [9] | combination Emax [10] | combination Emax [11] | combination Emax [12] | combination Emax [13] | combination Emax [14] | combination Emax [15] | combination Emax [16] | combination Emax [17]
1 | CC(=O)c1c(C)c2cnc(Nc3ccc(N4CCNCC4)cn3)nc2n(C2CCCC2)c1=O [Palbociclib] + Cc1c2c(nn1C)CSCc1cc(n(C)n1)CSc1cc(c3ccccc3c1)OCCCc1c(C(=O)O)n(C)c3c-2c(Cl)ccc13 [AZD5991] (first compound max 10 µM, 7x7, partner max 1 µM) | 1 | 0.446 | 0.46 | 0.335 | 0.491 | 0.935 | 0.905 | 0.431 | 0.644 | 0.322 | 0.917 | 0.282 | 0.151 | 1 | 0.9 | 1 | 0.344 | 0.403 | 0.244 | 0.932
2 | COc1cccc(OCCCN)c1-c1cc(Nc2cnc(C#N)cn2)n[nH]1 [Prexasertib] + Cc1cc2ncnn2cc1Nc1ncc2c(n1)n(C1CCOCC1)c(=O)n2C [AZD7648] (first compound max 1 µM, 7x7, partner max 10 µM) | 0.89 | 0.983 | 0.94 | 0.902 | 0.962 | 1 | 0.954 | 0.777 | 0.859 | 0.539 | 0.966 | 0.908 | 0.411 | 1 | 1 | 1 | 0.523 | 0.777 | 0.653 | 0.643
3 | NC1(C(=O)N[C@@H](CCO)c2ccc(Cl)cc2)CCN(c2ncnc3[nH]ccc23)CC1 [Capivasertib] + CCN(CCO)CCCOc1ccc2c(Nc3cc(CC(=O)Nc4cccc(F)c4)[nH]n3)ncnc2c1 [AZD2811] (first compound max 10 µM, 7x7, partner max 1 µM) | 0.878 | 0.941 | 0.243 | 0.31 | 0.568 | 0.464 | 0.5 | 0.471 | 0.688 | 0.494 | 0.86 | 0.599 | 0.7 | 1 | 0.997 | 0.954 | 0.321 | 0.605 | 0.346 | 0.763
4 | NC1(C(=O)N[C@@H](CCO)c2ccc(Cl)cc2)CCN(c2ncnc3[nH]ccc23)CC1 [Capivasertib] + C[C@@H]1COCCN1C2=NC(=NC(=C2)C3(CC3)[S@](=N)(=O)C)C4=C5C=CNC5=NC=C4 [AZD6738] (first compound max 10 µM, 7x7, partner max 10 µM) | 0.942 | 0.932 | 0.729 | 0.634 | 0.938 | 0.97 | 0.814 | 0.777 | 0.9 | 0.579 | 0.986 | 0.706 | 0.755 | 0.928 | 1 | 0.975 | 0.417 | 0.742 | 0.406 | 0.774
5 | CN(CCO)CC[C@H](CSc1ccccc1)Nc1ccc(S(=O)(=O)NC(=O)c2ccc(N3CCC([C@@H](O)c4ccccc4-c4ccc(Cl)cc4)CC3)cc2)cc1S(=O)(=O)C(F)(F)F [AZD4320] + CN(C)CCCOc1ccc(-c2ccc3ncc4c(c3c2)n(C2CCOCC2)c(=O)n4C)cn1 [AZD0156] (first compound max 1 µM, 7x7, partner max 1 µM) | 0.476 | 1 | 0.611 | 0.162 | 0.705 | 0.853 | 0.554 | 0.256 | 0.425 | 0.2 | 0.898 | 0.175 | 0.246 | 0.963 | 0.976 | 1 | 0.483 | 0.742 | 0.203 | 0.433
6 | COc1cccc(OCCCN)c1-c1cc(Nc2cnc(C#N)cn2)n[nH]1 [Prexasertib] + O=C(c1cc(Cc2n[nH]c(=O)c3ccccc23)ccc1F)N1CCN(C(=O)C2CC2)CC1 [Olaparib] (first compound max 1 µM, 7x7, partner max 10 µM) | 0.919 | 0.992 | 0.943 | 0.851 | 0.96 | 1 | 0.957 | 0.827 | 0.829 | 0.558 | 0.961 | 0.776 | 0.429 | 1 | 1 | 0.998 | 0.52 | 0.845 | 0.708 | 0.641
